ChEMBL document CHEMBL3507680, “University of Dundee, Gates Library screen for HepG2 cell viability”

Experiment: Human HepG2 cell viability assay in 384 well format
Type: toxicity, cell-based
Parameters: dose 125 nL, time 70.5 hour; concentration not given beside the values
Settings: HepG2 cells, read-out: Inhibition

Compound | cytotoxicity at 70.5 h [%]
COc1cc(C(C)=O)ccc1OCC(=O)c1cccn1C | 32.2
N#CCSCC(=O)NCC1CCCCC1 | -7.13
O=C(NCC1CCS(=O)(=O)C1)c1ccco1 (configuration not stated) | -8.58
NC(=O)CN1CCCN(C(=O)c2ccc(SC(F)F)cc2)CC1 | -6.46
NC(=O)CSCC(=O)NCC1CCCC1 | -10.8
CC(C)(C)n1ncc(NCC(O)c2ccccc2)c(Cl)c1=O (configuration not stated) | 25.2
CC1CN(C(=O)Nc2cc(C(F)(F)F)c[nH]c2=O)CCO1 (configuration not stated) | -8.88
CC1(C)CN(C(=O)Nc2cc(C(F)(F)F)c[nH]c2=O)CCO1 | -6.62
O=C(NCC1CCS(=O)(=O)C1)c1ccc(NC(=O)c2ccco2)cc1 (configuration not stated) | 26.8
O=c1n(CCNCc2cccc3ccccc23)nc2ccccn12 | -12.6
CC(C)(C)n1ncc(NCC(O)c2ccccc2C(F)(F)F)c(Cl)c1=O (configuration not stated) | 23.5
O=c1n(CCNCc2ccc3ccccc3c2)nc2ccccn12 | -0.105
CC(C)c1noc(CCNC(=O)NCC2COc3ccccc3O2)n1 (configuration not stated) | -11.6
CCC(C)(C)N(C)CCOc1cccc(S(C)(=O)=O)c1 | -3.09
CN(C)C(=O)c1cccc(CCNS(C)(=O)=O)c1 | -2.26
O=C(NCc1ccccc1OCCO)Nc1ccc2c(c1)CCC2 | 0.688
CCn1nc(C)cc1C(=O)OCCNc1ncnc2ccccc12 | 27.6
CNC(=O)C1CCCCN1C(=O)c1cn(CCOC)c2ccccc12 (configuration not stated) | 0.571
CC(C)N(C)S(=O)(=O)N(C)Cc1cnn(Cc2ccccc2)c1 | 3.45
COCCn1cc(C(=O)N2CCCC2c2ccncc2)c2ccccc21 (configuration not stated) | -4.2
CN(C)C(=O)c1cccc(CCNc2ccccc2S(C)(=O)=O)c1 | -0.957
COc1c(CNCc2ccccc2Cn2cncn2)c(C)nn1C | -1.28
Cc1ccc(NC2CCN(C(=O)CCCc3ccccn3)CC2)nn1 | 9.21
CCc1nccn1C1CCCN(C(=O)CCc2nc(C(C)C)no2)C1 (configuration not stated) | -1.73

Compound | cytotoxicity at 70.5 h [%]
Cc1nn(C)c(Cl)c1C1CCCN1C(=O)c1ccc(N(C)C)nn1 (configuration not stated) | -12.9
N#Cc1ccc(N2CCCN(CCCn3cncn3)CC2)cc1 | -0.762
CC(C)(CNC(=O)Nc1nccs1)N1CCOCC1 | -6.21
O=C(c1c[nH]c(=O)c(Cl)c1)N1CCc2ccccc2C1 | 1.04
CCc1ncc(C(=O)NCCNc2ncnc3sccc23)s1 | 18.2
CC(=O)N(C)CC(=O)NC1(c2ccc(Br)cc2)CC1 | 4.73
CCN(CC)CC(=O)Nc1ccc(-n2ccc(C(N)=O)n2)cc1 | 25.3
CC(C)N(C)CC(=O)Nc1ccc(-n2ccc(C(N)=O)n2)cc1 | -2.55
Cc1cccc(CS(=O)(=O)c2nnc(N3CCOCC3)s2)c1 | 0.983
CS(=O)(=O)CCSC1CCN(c2ccccc2F)C1=O (configuration not stated) | -14.2
CC(=O)N(C)CC(=O)NC1(c2ccc(F)cc2)CCCC1 | -2.78
O=C(c1cnc(OCC(F)(F)F)c(Cl)c1)N1CCc2ccc(O)cc2C1 | -18.4
Cn1cc(C(=O)CC2CCCN2C(=O)c2ccc3[nH]ncc3c2)cn1 (configuration not stated) | 30
Cc1ccc(O)c(C(=O)N2CCCC2CC(=O)c2cnn(C)c2)c1 (configuration not stated) | -4.97
Cc1cc(CC(=O)NCC(O)c2ccc(OC(F)F)cc2)n[nH]1 (configuration not stated) | -4.53
CCc1nc(C2CCCN(C(=O)C3=NN(CC)C(=O)CC3)C2)no1 (configuration not stated) | -13.2
N#Cc1ccc(CN2CCCN(CCCn3cncn3)CC2)cc1 | 3.01
CC(C)c1n[nH]c(C2CN(Cc3ncc[nH]3)CCO2)n1 (configuration not stated) | 35.2
Cc1ccccc1CN(Cc1ccccn1)C(=O)CN(C)C(C)C | 2.63
c1ccc(NCc2cccc(OCCN3CCOCC3)c2)nc1 | 6.42
COCCC(=O)N(Cc1ccccn1)Cc1ccccc1C | 7.25
O=c1[nH]nc(SCC2CCCO2)n1C1CC1 (configuration not stated) | -6.11
CS(=O)(=O)Nc1cccc(CNC(=O)CCNC(=O)c2cccs2)c1 | 23.6
COc1cc2c(cc1OC)CN(C(=O)Cn1nc(C)cc1C)CC2 | -5.35

Compound | cytotoxicity at 70.5 h [%]
O=C(CN1CCS(=O)(=O)CC1)NC1CCCc2ccccc21 (configuration not stated) | -7.89
N#Cc1cn(CCN2CCc3ccccc3C2)c(=O)[nH]c1=O | 0.215
CS(=O)(=O)Nc1cccc(CNC(=O)c2cccs2)c1 | 19
CCCc1cc(C(=O)NCCN2C(=O)c3ccccc3C2=O)[nH]n1 | -8.43
CS(=O)(=O)NC1CCCN(Cc2ccc(OCc3ccccn3)cc2)C1 (configuration not stated) | -1.69
O=C(NC1CCN(c2cccc(C(F)(F)F)n2)CC1)C1CC1 | 23.1
CC(C(=O)N1CCN(C(=O)c2ccc(F)cc2)CC1)n1ccnc1 (configuration not stated) | -4.23
COc1cc2c(cc1OC)CCN(C(=O)Cn1nc(C)cc1C)CC2 | 2.01
O=C1NCC(C(=O)N(Cc2ccc(C(F)(F)F)cc2)C2CC2)N1 (configuration not stated) | 23.5
CS(=O)(=O)NC1CCCN(Cc2ccccn2)C1 (configuration not stated) | -1.75
O=C1CC[C@H](C(=O)N(Cc2cccc(Br)c2)C2CC2)N1 | 2.31
CC(C)(C)c1n[nH]c(C2CN(Cc3ncc[nH]3)CCO2)n1 (configuration not stated) | -0.788
CS(=O)(=O)Cc1ccc(Cl)cc1NCc1cccc(F)c1F | 2.24
Cc1nc(-c2ccc(NCCc3ccc(O)cc3)nc2)[nH]c(=O)c1C | 3.42
COC(=O)c1ccc(Cn2nc(C)cc2C)c(F)c1 | -4.1
COC(=O)c1ccc(Cn2nc(C)cc2C)c(OC)c1 | 2.29
Cn1c(C2CC2)nc2cc(NC(=O)C3CCOC3)ccc21 (configuration not stated) | -4.07
COc1cc(OC)cc(N2CCC(NCc3cc[nH]n3)C2)c1 (configuration not stated) | 40.6
Clc1cccc(N2CCC(NCc3cc[nH]n3)C2)c1 (configuration not stated) | 3.22
COCC1CCCN(CCCc2cccc(OC)c2)C1 (configuration not stated) | 37.4
CC(CS(C)(=O)=O)N(C(=O)CCc1ccc(Cl)s1)C1CC1 (configuration not stated) | -3.37
CCCc1noc(C(C)S(=O)(=O)Cc2nc(C3CC3)no2)n1 (configuration not stated) | -2.49
CCc1ccc(C(=O)N(CC(F)(F)F)C2CCCOC2)o1 (configuration not stated) | -6.93
CCC(C)NC(=O)CN1CCOCC1 (configuration not stated) | -5.48

Compound | cytotoxicity at 70.5 h [%]
CCc1noc(CS(=O)(=O)Cc2ccccc2Cl)n1 | -6.3
O=C(Cc1ccc2c(c1)CCO2)Nc1ccc(-n2cncn2)nc1 | 16.4
O=C(Nc1ccc(Cl)cn1)C1CCCN(CCc2ccncc2)C1 (configuration not stated) | -1.77
Cc1oc(NC(=O)C(C)N2CCN(C(=O)C3CC3)CC2)c(C#N)c1C (configuration not stated) | -1.91
Cc1oc(NC(=O)C(C)N2CCN(CCO)CC2)c(C#N)c1C (configuration not stated) | -2.61
CC(C)(C)C(=O)Cn1nc(C2CC2)cc(C(F)(F)F)c1=O | -0.663
OCCN1CCC(CNCc2ccc(N3CCCCC3)cc2)CC1 | 1.15
Cc1cnc(C(=O)N2CCCN(Cc3cnn(C(C)C)c3)CC2)cn1 | 17.6
Cc1nc(C2CCCN2CC(=O)Nc2c(C)nn(C)c2C)no1 (configuration not stated) | -3.49
Cc1nc(C)n(CC2CN(CCc3cccs3)CCO2)n1 (configuration not stated) | -5.27
O=C(C1CCCC1)N1CCCC1c1nnc2n1CCCCC2 (configuration not stated) | 1.94
Cc1cc(F)ccc1NC(=O)NCC(C)N1CCOCC1 (configuration not stated) | 32.7
CC1CCCN(C(=O)Nc2ccc(F)c(C(N)=O)c2)C1 (configuration not stated) | -1.11
CCN(CC)C(CNS(=O)(=O)c1ccc(C(N)=O)cc1)c1ccco1 (configuration not stated) | -0.105
NC(=O)c1cc(NC(=O)N2CCOCC2)ccc1F | 9.19
CC(CNC(=O)Nc1ccc(F)cc1Br)N1CCOCC1 (configuration not stated) | 31.4
c1ccc2c(N3CCOC(Cn4cccn4)C3)ncnc2c1 (configuration not stated) | -4.3
CSC(C)(C)CNC(=O)NC(c1nnc2n1CCC2)C(C)C (configuration not stated) | -3.59
O=C(CC1CN(Cc2ccccc2)CCO1)NCCN1CCOCC1 (configuration not stated) | 37.5
Cc1nsc(N2CCCN(C(=O)NCc3cc(C)on3)CC2)n1 | -1.32
Cc1noc(CNC(=O)N2CCN(c3nc(C)c(C)s3)CC2)n1 | -3.61
Cc1nc(N2CCN(C(=O)NCc3cscn3)CC2)sc1C | -2.92
CC(CNC(=O)Nc1ccc(F)cc1-n1cccc1)N1CCOCC1 (configuration not stated) | 4.4
Cn1cc(CCNC(=O)N2CCCC(Cc3nccn3C)C2)cn1 (configuration not stated) | -0.841

Compound | cytotoxicity at 70.5 h [%]
Cn1ccnc1CC1CCCN(C(=O)NCCOc2cccnc2)C1 (configuration not stated) | 1.38
CCc1nncn1CCNC(=O)N1CCCC(Cc2nccn2C)C1 (configuration not stated) | 32.8
Cc1cc(C)n(CCC(=O)N2CCCC(n3nc(C)nc3C)C2)n1 (configuration not stated) | -6.97
N#CC1(NC(=O)CNCCn2cccn2)CCCCC1 | -1.06
CCC(CNC1CCN(C(C)=O)CC1)Oc1cccc(C)c1 (configuration not stated) | -6.04
Cc1sc2nc(C(F)(F)F)nc(N3CCCN(C)CC3)c2c1C | 22.1
Cc1sc2nc(C(F)(F)F)nc(N3CCN(S(C)(=O)=O)CC3)c2c1C | -4.32
CCCc1nc(C)c(C(=O)NC2CCN(C3CC3)C2)s1 (configuration not stated) | 14.1
CN(Cc1ccc2c(c1)OCO2)Cc1nc(-c2ccco2)no1 | -10.9
CCOc1ccc(CNCc2ccc(C(=O)NC)cc2)cc1OCC | -7.21
CNC(=O)c1ccc(CNCc2ccc(SC)c(OC)c2)cc1 | 27
CC(C)c1ncc2c(n1)CN(Cc1nc3c(F)cccc3[nH]1)CC2 | 21
N#Cc1ccc(C(=O)NS(=O)(=O)c2ccc(C#N)c(Cl)c2)cc1 | -8.83
CN(C(=O)CNCCn1cccn1)C1(C#N)CCCCC1 | -3.85
Cc1cc(C)c(C(=O)N2CCOC(c3cccs3)C2)c(=O)[nH]1 (configuration not stated) | -6.92
COc1ccnc(NC(=O)c2cscc2C)c1 | -2.28
COc1cc(NC(=O)c2cscn2)ncn1 | 22.1
N#Cc1ccc(C(=O)NS(=O)(=O)c2ccc(F)c(F)c2)cc1 | 28.9
O=C(NCCSCc1cccs1)C1CCCN(C(=O)N2CCCC2)C1 (configuration not stated) | -6.45
COc1ccc(C(C)NCc2c[nH]nc2C)cc1Br (configuration not stated) | -6.07
O=C(CN1CCC[C@@H]1C(=O)O)NCCOc1cccc(C(F)(F)F)c1 | -6.55
